Laboratory results: patent publication US12480954B2, “Method for assisting evaluation of condition of kidneys, system for evaluating condition of kidneys, and program for evaluating condition of kidneys” (Kagami Inc., priority 2019, dated 2025)

Legend:
[1] = D-serine excretion rate monitored before and after therapeutic intervention in a systemic lupus erythematosus patient; format: in vivo, human; settings: SLE patient
Description: After obtaining written informed consent from a person admitted to Osaka University Hospital with systemic lupus erythematosus, with ethical approval from the same University, their blood and urine were periodically sampled. The values rapidly worsened, with serum creatinine increasing from a level of 0.57 mg/dL 90 days before admission to 11.68 mg/dL and urine protein concentration increasing from 0.5 g/g Cre to 4.0 g/g Cre, while blood pressure was 122/65 mmHg, HR was 64 bpm, percutaneous arterial oxygen saturation was 100% (indoor air) and body temperature was 36.5° C. Mouth ulcers, alopecia and retinal hemorrhage were also noted, but no abnormal lung sounds, heart sounds or lower extremity edema was observed. Rapidly progressive glomerulonephritis was suspected in clinical testing, with blood hemoglobin of 4.6 g/dL, normal level complement of C3: 88 mg/dL and C4: 21 mg/dL, positive anti-dsDNA antibody of 13.0 IU/mL1, and P-ANCA of 182.0 U/mL, and therefore plasma exchange (PE) sessions were continued, and kidney biopsy was performed. Crescent-shaped cells were found in 79% of the glomeruli, fibrous crescent-shaped cells were found in 13%, and the glomerular capillaries were thickened with foam and spikes, although no glomerulosclerosis was observed. […] Tubular atrophy was localized and moderate. In immunofluorescent staining, the granular glomerular capillary walls were positive overall for IgG, IgA, IgM, C3, C4 and C1q. Diagnosis was latent ANCA-related crescent-shaped glomerular nephritis, with lupus nephritis class V. Treatment was by prednisolone pulse therapy (3 days, 1 g), followed by oral prednisolone (40 mg/day), intermittent pulse intravenous cyclophosphamide therapy (500 mg/m^2) and mycophenolate mofetil (MMF, 500 mg/day). Eight series of plasma exchange was also carried out. In response to this treatment, the serum creatinine level fell to 0.72 mg/dL, but the urine protein level persisted. […] The harvested blood and urine samples were prepared in the same manner as Example 1, and the D-serine was quantified while also calculating the D-serine excretion rate.

[2] = set-up: species or system human; settings: in vivo
Text: Blood D-serine levels and D-asparagine levels correlate more strongly with glomerular filtration rate than the conventional marker of creatinine. […] In healthy persons without presence of disease, blood D-serine level is kept to within a very narrow range of about 1 to 2% of total serine, whereas its presence in urine reaches 30 to 60%. […] Moreover, in healthy persons without presence of disease, blood D-asparagine level is kept to within a very narrow range of about 0.1 to 0.6% of total asparagine, whereas its presence in urine reaches 20 to 50%.

[3] = human, in vivo
Text: The test protocol was approved by the ethics committee of the national research and development agency: National Institutes of Biomedical Innovation, Health and Nutrition, and written informed consent was obtained from all of the test subjects.
[formula] • [UD-Ser represents urine D-serine level, PD-Ser represents blood D-serine level, UCre represents urine creatinine level and PCre represents blood creatinine level.]
A retrospective study was used for primary aldosteronism (PA), myeloma kidney […], diabetic nephropathy (DM) and IgA nephropathy (IGAN), from a cohort of kidney disease patients admitted to the Department of Nephrology, Osaka University Hospital for diagnosis and/or treatment from 2016 to 2017. Since IgA nephropathy test subjects had blood pressure above the reference range, they were given an angiotensin II receptor antagonist (ARB) as an antihypertensive drug. Separately, 15 healthy volunteers were recruited as non-kidney disease subjects by the National Institutes of Biomedical Innovation, Health and Nutrition. The test protocol was approved by the ethics committee of each facility, and written informed consent was obtained from all of the patients.
Sample preparation from human blood plasma and urine was carried out as follows: First a 20-fold volume of methanol was added to and completely mixed with the blood plasma. After centrifugation, 10 μL of supernatant obtained from the methanol homogenate was transferred to a brown tube and dried under reduced pressure. To the residue there were added 20 μL of 200 mM sodium borate buffer (pH 8.0) and 5 μL of fluorescent labeling reagent (40 mM 4-fluoro-7-nitro-2,1,3-benzooxadiazole (NBD-F) in anhydrous MeCN), and the mixture was then heated at 60° C. for 2 minutes. The reaction was suspended by addition of 75 μL of aqueous 0.1% TFA (v/v), and 2 μL of the reaction mixture was supplied to two-dimensional HPLC.
The amino acid optical isomers were quantified using the following two-dimensional HPLC system. NBD derivatives of the amino acids were separated and eluted using a reversed-phase column (KSAA RP, 1.0 mm i.d.×400 mm; Shiseido Corp.), in the mobile phase (5 to 35% MeCN, 0 to 20% THF, 0.05% TFA). The column temperature was 45° C. and the mobile phase flow rate was 25 μL/min. The separated amino acid fraction was separated off using a multi loop valve, and optically resolved in a continuous manner with a chiral column (KSAACSP-001S, 1.5 mm i.d.×250 mm; Shiseido Corp.). The mobile phase used was a MeOH/MeCN mixed solution containing citric acid (0 to 10 mM) or formic acid (0 to 4%), according to the amino acid retention. NBD-amino acids were detected by fluorescence detection at 530 nm using excitation light of 470 nm. The NBD-amino acid retention time was identified from standard amino acid optical isomers and quantified by a calibration curve.
The blood urine D-serine level and blood urine D-asparagine level and creatinine level were calculated by substitution into the following formulas.
[formula] • [where • UD-Ser represents the level of D-serine in the urine, • PD-Ser represents the level of D-serine in the blood, • UCre represents the level of creatinine in the urine, and • PCre represents the level of creatinine in the blood]
[formula] • [where • UD-Asn represents the level of D-asparagine in the urine, • PD-Asn represents the level of D-asparagine in the blood, • UCre represents the level of creatinine in the urine, and • PCre represents the level of creatinine in the blood] Evaluation and Assessment of Pathology

With `N[C@H](CO)C(=O)O` [D-serine] the D-serine excretion rate ([1]; after 48 hours (so in the source)) was 41.7%, the D-serine excretion rate ([1]; after 8 days) was 0 and the D-serine excretion rate ([1]; after 12 days) was 0. For the same molecule, the D-serine excretion rate ([1]; after 16 days) was 0, the D-serine excretion rate ([1]; after 22 days) was 0 and the D-serine excretion rate ([1]; after 29 days) was 58.9%. The D-serine excretion rate ([1]; after 34 days) was 87.6%, the D-serine excretion rate ([1]; immediately after start of treatment) was 0 and the excreted [2] was 50-80%. The “logarithm of reference values of excretion rate” value [3] was 3.75-4.50, the “mean logarithmic value of excretion rate” value [3] was 4.12 and the “reference values of excretion rate, mean with standard deviation of ±1.96” value [3] was 42.46-89.66%.

For `NC(=O)C[C@@H](N)C(=O)O` [D-asparagine], the excreted [2] was 50-80%, the “logarithm of reference values of excretion rate” value [3] was 3.95-4.37 and the “mean logarithmic value of excretion rate” value [3] was 4.16. For the same molecule, the “reference values of excretion rate, mean with standard deviation of ±1.96” value [3] was 51.65-78.74%.

In the case of `N[C@@H](CO)C(=O)O` [L-serine], the “reabsorbed in the renal tubules” value [2] is reported as “about 99%”.

In the case of `NC(=O)C[C@H](N)C(=O)O` [L-asparagine], the “reabsorbed in the renal tubules” value [2] is reported as “about 99%”.
